Patent publication US20210221866A1, “PROTEASE-RESISTANT LIPIDATED GLP-1 ANALOGS” (MEDIMMUNE LIMITED, priority 2015, published 2021)
Where two headings read alike, the source gives them in different places. Numbered stars: 1 amine (or outer) side, 2 acyl side, 3 side chain; on linkers, the order of the positions; unused ones are H or OH. Square brackets hold non-standard residues; d marks the D form. Side chains are listed from the residue outwards. Peptide text beside a SMILES is read from it. * marks the point of attachment. C18 diacid = O=C(O)CCCCCCCCCCCCCCCCC(=O)*; γGlu = O=C(O)[C@H](CCC(=O)[*:2])N[*:1]; αMeF = C[C@](N)(Cc1ccccc1)C(=O)O; αMeK = C[C@](N)(CCCCN)C(=O)O; Lauroyl = CCCCCCCCCCCC(=O)*; αMeS = C[C@](N)(CO)C(=O)O; AEEA = NCCOCCOCC(=O)O; Aib = CC(C)(N)C(=O)O

Target: T1, human GLP-1 receptor (GLP-1R) (Homo sapiens, UniProt P43220)
T1 construct: expressed in transfected cells; host or cells: HEK293 cells or CHO cells
T1 sequence (P43220 24-463): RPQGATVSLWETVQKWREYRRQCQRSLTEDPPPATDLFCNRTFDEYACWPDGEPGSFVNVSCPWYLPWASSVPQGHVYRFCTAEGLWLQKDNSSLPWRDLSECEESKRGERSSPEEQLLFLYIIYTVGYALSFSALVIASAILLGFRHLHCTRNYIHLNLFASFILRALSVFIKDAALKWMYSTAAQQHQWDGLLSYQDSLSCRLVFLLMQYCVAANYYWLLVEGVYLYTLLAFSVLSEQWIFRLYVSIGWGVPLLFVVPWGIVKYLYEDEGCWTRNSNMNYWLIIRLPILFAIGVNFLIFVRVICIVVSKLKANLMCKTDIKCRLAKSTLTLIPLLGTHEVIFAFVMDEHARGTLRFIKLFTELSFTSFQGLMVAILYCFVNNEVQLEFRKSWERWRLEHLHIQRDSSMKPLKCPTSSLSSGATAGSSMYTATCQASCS
Test: cAMP assay, human GLP-1R cells
Type: cell-based
Procedure: Sample dilutions are made in duplicate.
A frozen cryo-vial of cells expressing the receptor of interest is thawed rapidly in a water-bath, transferred to pre-warmed assay buffer and spun at 240×g for 5 minutes. Cells are re-suspended in assay buffer at a batch-dependent optimized concentration (e.g. hGCGR cells at 2×10^5 cells/ml, hGLP-1R and hGIPR cells at 1×10^5 cells/ml).
To this, 5 μL cell suspension is added and the plates incubated at room temperature for 30 minutes.
cAMP levels are measured using a commercially available cAMP dynamic 2 HTRF kit (Cisbio, Cat #62AM4PEJ), following the two step protocol as per manufacturer's recommendations. In brief; anti-cAMP cryptate (donor fluorophore) and cAMP-d2 (acceptor fluorophore) are made up separately by diluting each 1/20 in conjugate & lysis buffer provided in the kit. 5 μL anti-cAMP cryptate is added to wells of the assay plate, and 5 μL cAMP-d2 is added to wells except non-specific binding (NSB) wells, to which conjugate and lysis buffer are added. […] EC50 values of the synthetic peptides determined in cAMP assays are then determined.
Data is transformed to % Delta F as described in the manufacturer's guidelines and analyzed by 4-parameter logistic fit to determine EC50 values. […] To compare the balance of activities at the GLP-1R and GCGR between different peptides and across different conditions, these can be correlated, where the EC50's are related to those of comparator peptides.

[1] = cAMP activity, mean of n1 and n2, read-out: Mean pM GLP-1R
[2] = cAMP activity, second determination (n2), read-out: Primary assay EC50 GLP-1R n2

Compound | EC50 [1] [pM] | EC50 [2] [pM] | also measured
CC[C@H](C)[C@H](NC(=O)[C@](C)(Cc1ccccc1)NC(=O)[C@H](CCC(=O)O)NC(=O)[C@](C)(CCCCN)NC(=O)[C@H](C)NC(=O)[C@H](C)NC(=O)[C@H](CCCCNC(=O)COCCOCCNC(=O)COCCOCCNC(=O)CC[C@H](NC(=O)CCCCCCCCCCCCCCCCC(=O)O)C(=O)O)NC(=O)CNC(=O)[C@H](CCC(=O)O)NC(=O)[C@H](CC(C)C)NC(=O)[C@](C)(Cc1ccccc1)NC(=O)[C@H](CO)NC(=O)[C@](C)(CO)NC(=O)[C@@H](NC(=O)[C@H](CC(=O)O)NC(=O)[C@H](CO)NC(=O)[C@@H](NC(=O)[C@](C)(Cc1ccccc1)NC(=O)[C@H](CO)NC(=O)CNC(=O)[C@H](CCC(=O)O)NC(=O)C(C)(C)NC(=O)[C@@H](N)Cc1c[nH]cn1)[C@@H](C)O)C(C)C)C(=O)N[C@@H](C)C(=O)N[C@@](C)(Cc1ccccc1)C(=O)N[C@H](C(=O)N[C@H](C(=O)N[C@@](C)(CCCCN)C(=O)NCC(=O)NCC(N)=O)C(C)C)C(C)C [compound 112] (H-H[Aib]EGS[αMeF]TSDV[αMeS]S[αMeF]LEGK([AEEA-AEEA-γGlu-C18 diacid])AA[αMeK]E[αMeF]IA[αMeF]VV[αMeK]GG-NH2; N-terminus assumed) | 6 |  | 
CC[C@H](C)[C@H](NC(=O)[C@](C)(Cc1ccccc1)NC(=O)[C@H](CCC(=O)O)NC(=O)[C@](C)(CCCCN)NC(=O)[C@H](C)NC(=O)[C@H](C)NC(=O)[C@H](CCC(=O)O)NC(=O)[C@H](CCCCNC(=O)COCCOCCNC(=O)COCCOCCNC(=O)CC[C@H](NC(=O)CCCCCCCCCCCCCCCCC(=O)O)C(=O)O)NC(=O)[C@H](CCC(=O)O)NC(=O)[C@H](CC(C)C)NC(=O)[C@](C)(Cc1ccccc1)NC(=O)[C@H](CO)NC(=O)[C@](C)(CO)NC(=O)[C@@H](NC(=O)[C@H](CC(=O)O)NC(=O)[C@H](CO)NC(=O)[C@@H](NC(=O)[C@](C)(Cc1ccccc1)NC(=O)[C@H](CO)NC(=O)CNC(=O)[C@H](CCC(=O)O)NC(=O)C(C)(C)NC(=O)[C@@H](N)Cc1c[nH]cn1)[C@@H](C)O)C(C)C)C(=O)N[C@@H](C)C(=O)N[C@@](C)(Cc1ccccc1)C(=O)N[C@H](C(=O)N[C@H](C(=O)N[C@@](C)(CCCCN)C(=O)NCC(=O)NCC(N)=O)C(C)C)C(C)C [compound 113] (H-H[Aib]EGS[αMeF]TSDV[αMeS]S[αMeF]LEK([AEEA-AEEA-γGlu-C18 diacid])EAA[αMeK]E[αMeF]IA[αMeF]VV[αMeK]GG-NH2; N-terminus assumed) | 18 | 17.4 | 
CC[C@H](C)[C@H](NC(=O)[C@](C)(Cc1ccccc1)NC(=O)[C@H](CCC(=O)O)NC(=O)[C@](C)(CCCCN)NC(=O)[C@H](C)NC(=O)[C@H](C)NC(=O)[C@H](CCC(=O)O)NC(=O)CNC(=O)[C@H](CCC(=O)O)NC(=O)[C@H](CC(C)C)NC(=O)[C@H](CCCCNC(=O)COCCOCCNC(=O)COCCOCCNC(=O)CC[C@H](NC(=O)CCCCCCCCCCCCCCCCC(=O)O)C(=O)O)NC(=O)[C@H](CO)NC(=O)[C@](C)(CO)NC(=O)[C@@H](NC(=O)[C@H](CC(=O)O)NC(=O)[C@H](CO)NC(=O)[C@@H](NC(=O)[C@](C)(Cc1ccccc1)NC(=O)[C@H](CO)NC(=O)CNC(=O)[C@H](CCC(=O)O)NC(=O)C(C)(C)NC(=O)[C@@H](N)Cc1c[nH]cn1)[C@@H](C)O)C(C)C)C(=O)N[C@@H](C)C(=O)N[C@@](C)(Cc1ccccc1)C(=O)N[C@H](C(=O)N[C@H](C(=O)N[C@@](C)(CCCCN)C(=O)NCC(=O)NCC(N)=O)C(C)C)C(C)C [compound 116] | 9 | 9.12 | 
CCCCCCCCCCCC(=O)N[C@@H](CCC(=O)NCCOCCOCC(=O)NCCOCCOCC(=O)NCCCC[C@H](NC(=O)CNC(=O)[C@H](CCC(=O)O)NC(=O)[C@H](CC(C)C)NC(=O)[C@H](Cc1ccc(O)cc1)NC(=O)[C@H](CO)NC(=O)[C@H](CO)NC(=O)[C@H](CCCCNC(=O)COCCOCCNC(=O)COCCOCCNC(=O)CC[C@H](NC(=O)CCCCCCCCCCC)C(=O)O)NC(=O)[C@H](CC(=O)O)NC(=O)[C@H](CO)NC(=O)[C@@H](NC(=O)[C@](C)(Cc1ccccc1)NC(=O)[C@H](CO)NC(=O)CNC(=O)[C@H](CCC(=O)O)NC(=O)C(C)(C)NC(=O)[C@@H](N)Cc1c[nH]cn1)[C@@H](C)O)C(=O)N[C@@H](C)C(=O)N[C@@H](C)C(=O)N[C@@](C)(CCCCN)C(=O)N[C@@H](CCC(=O)O)C(=O)N[C@@H](Cc1ccccc1)C(=O)N[C@H](C(=O)N[C@@H](C)C(=O)N[C@@H](CCCCNC(=O)COCCOCCNC(=O)COCCOCCNC(=O)CC[C@H](NC(=O)CCCCCCCCCCC)C(=O)O)C(=O)N[C@H](C(=O)N[C@H](C(=O)N[C@@H](CCC(=O)O)C(=O)NCC(=O)NCC(N)=O)C(C)C)C(C)C)[C@@H](C)CC)C(=O)O [compound 456] (H-H[Aib]EGS[αMeF]TSDK([AEEA-AEEA-γGlu-Lauroyl])SSYLEGK([AEEA-AEEA-γGlu-Lauroyl])AA[αMeK]EFIAK([AEEA-AEEA-γGlu-Lauroyl])VVEGG-NH2; N-terminus assumed) |  |  | EC50 (Table 11, tris-lipidated peptides, mean of n1 and n2, read-out: Primary assay EC50 Mean pM GLP-1R): 170 pM; EC50 (Table 11, tris-lipidated peptides, replicate n1, read-out: Primary assay EC50 GLP-1R n1): 116 pM; EC50 (Table 11, tris-lipidated peptides, replicate n2, read-out: Primary assay EC50 GLP-1R n2): 224 pM

More lines, main results first:

EC50 [1] [pM] | EC50 [2] [pM] | Compound | also measured
11.5 |  | CCCCCCCCCCCC(=O)N[C@@H](CCC(=O)N[C@@H](CCC(=O)NCCCC[C@H](NC(=O)[C@H](C)NC(=O)[C@H](C)NC(=O)[C@H](CCC(=O)O)NC(=O)CNC(=O)[C@H](CCC(=O)O)NC(=O)[C@H](CC(C)C)NC(=O)[C@](C)(Cc1ccccc1)NC(=O)[C@H](CO)NC(=O)[C@](C)(CO)NC(=O)[C@@H](NC(=O)[C@H](CC(=O)O)NC(=O)[C@H](CO)NC(=O)[C@@H](NC(=O)[C@](C)(Cc1ccccc1)NC(=O)[C@H](CO)NC(=O)CNC(=O)[C@H](CCC(=O)O)NC(=O)C(C)(C)NC(=O)[C@@H](N)Cc1c[nH]cn1)[C@@H](C)O)C(C)C)C(=O)N[C@@H](CCC(=O)O)C(=O)N[C@@](C)(Cc1ccccc1)C(=O)N[C@H](C(=O)N[C@@H](C)C(=O)N[C@@](C)(Cc1ccccc1)C(=O)N[C@H](C(=O)N[C@H](C(=O)N[C@@](C)(CCCCN)C(=O)NCC(=O)NCC(N)=O)C(C)C)C(C)C)[C@@H](C)CC)C(=O)O)C(=O)O [compound 129] | 
105 |  | CC[C@H](C)[C@H](NC(=O)[C@](C)(Cc1ccccc1)NC(=O)[C@H](CCC(=O)O)NC(=O)[C@H](CCCCNC(=O)CC[C@H](NC(=O)CC[C@H](NC(=O)CCCCCCCCCCCCCCCCC(=O)O)C(=O)O)C(=O)O)NC(=O)[C@H](C)NC(=O)[C@H](C)NC(=O)[C@H](CCC(=O)O)NC(=O)CNC(=O)[C@H](CCC(=O)O)NC(=O)[C@H](CC(C)C)NC(=O)[C@](C)(Cc1ccccc1)NC(=O)[C@H](CO)NC(=O)[C@](C)(CO)NC(=O)[C@@H](NC(=O)[C@H](CC(=O)O)NC(=O)[C@H](CO)NC(=O)[C@@H](NC(=O)[C@](C)(Cc1ccccc1)NC(=O)[C@H](CO)NC(=O)CNC(=O)[C@H](CCC(=O)O)NC(=O)C(C)(C)NC(=O)[C@@H](N)Cc1c[nH]cn1)[C@@H](C)O)C(C)C)C(=O)N[C@@H](C)C(=O)N[C@@](C)(Cc1ccccc1)C(=O)N[C@H](C(=O)N[C@H](C(=O)N[C@@](C)(CCCCN)C(=O)NCC(=O)NCC(N)=O)C(C)C)C(C)C [compound 156] | 
227 |  | CC[C@H](C)[C@H](NC(=O)[C@](C)(Cc1ccccc1)NC(=O)[C@H](CCC(=O)O)NC(=O)[C@H](CCCCNC(=O)CC[C@H](NC(=O)CC[C@H](NC(=O)CC[C@H](NC(=O)CCCCCCCCCCCCCCCCC(=O)O)C(=O)O)C(=O)O)C(=O)O)NC(=O)[C@H](C)NC(=O)[C@H](C)NC(=O)[C@H](CCC(=O)O)NC(=O)CNC(=O)[C@H](CCC(=O)O)NC(=O)[C@H](CC(C)C)NC(=O)[C@](C)(Cc1ccccc1)NC(=O)[C@H](CO)NC(=O)[C@](C)(CO)NC(=O)[C@@H](NC(=O)[C@H](CC(=O)O)NC(=O)[C@H](CO)NC(=O)[C@@H](NC(=O)[C@](C)(Cc1ccccc1)NC(=O)[C@H](CO)NC(=O)CNC(=O)[C@H](CCC(=O)O)NC(=O)C(C)(C)NC(=O)[C@@H](N)Cc1c[nH]cn1)[C@@H](C)O)C(C)C)C(=O)N[C@@H](C)C(=O)N[C@@](C)(Cc1ccccc1)C(=O)N[C@H](C(=O)N[C@H](C(=O)N[C@@](C)(CCCCN)C(=O)NCC(=O)NCC(N)=O)C(C)C)C(C)C [compound 157] | 
54 | 55 | CC[C@H](C)[C@H](NC(=O)[C@](C)(Cc1ccccc1)NC(=O)[C@H](CCC(=O)O)NC(=O)[C@H](CCCCNC(=O)COCCOCCNC(=O)COCCOCCNC(=O)CCCCCCCCCCCCCCCCC(=O)O)NC(=O)[C@H](C)NC(=O)[C@H](C)NC(=O)[C@H](CCC(=O)O)NC(=O)CNC(=O)[C@H](CCC(=O)O)NC(=O)[C@H](CC(C)C)NC(=O)[C@](C)(Cc1ccccc1)NC(=O)[C@H](CO)NC(=O)[C@](C)(CO)NC(=O)[C@@H](NC(=O)[C@H](CC(=O)O)NC(=O)[C@H](CO)NC(=O)[C@@H](NC(=O)[C@](C)(Cc1ccccc1)NC(=O)[C@H](CO)NC(=O)CNC(=O)[C@H](CCC(=O)O)NC(=O)C(C)(C)NC(=O)[C@@H](N)Cc1c[nH]cn1)[C@@H](C)O)C(C)C)C(=O)N[C@@H](C)C(=O)N[C@@](C)(Cc1ccccc1)C(=O)N[C@H](C(=O)N[C@H](C(=O)N[C@@](C)(CCCCN)C(=O)NCC(=O)NCC(N)=O)C(C)C)C(C)C [compound 162] | 
